Patent US20090017452A1, “METHODS AND COMPOSITIONS RELATING TO THE PHARMACOGENETICS OF DIFFERENT GENE VARIANTS” (UNIVERSITY OF CHICAGO, priority 2004, published 2009)
Substitutions are numbered along the chain they refer to. Where two headings read alike, the source gives them in different places.

Key:
[1] = Irinotecan and metabolite AUC by ABCC2 3972C>T genotype in cancer patients
Source text: Sixty-four adults (48 Caucasians, 10 African-Americans, 4 Hispanics, and 2 others) with refractory solid tumors took part in the pharmacogenetic study.

OATP1B1 = molecular target: T1, OATP1B1 (Homo sapiens, UniProt Q9Y6L6); details: cited from earlier work; for transport activity by OATP1B1: OATP1B1*1a and three common variants
T1 construct: expressed in transfected cells; host or cells: HEK293 cells (stably transfected); Xenopus oocytes
T1 sequence (Q9Y6L6 1-691): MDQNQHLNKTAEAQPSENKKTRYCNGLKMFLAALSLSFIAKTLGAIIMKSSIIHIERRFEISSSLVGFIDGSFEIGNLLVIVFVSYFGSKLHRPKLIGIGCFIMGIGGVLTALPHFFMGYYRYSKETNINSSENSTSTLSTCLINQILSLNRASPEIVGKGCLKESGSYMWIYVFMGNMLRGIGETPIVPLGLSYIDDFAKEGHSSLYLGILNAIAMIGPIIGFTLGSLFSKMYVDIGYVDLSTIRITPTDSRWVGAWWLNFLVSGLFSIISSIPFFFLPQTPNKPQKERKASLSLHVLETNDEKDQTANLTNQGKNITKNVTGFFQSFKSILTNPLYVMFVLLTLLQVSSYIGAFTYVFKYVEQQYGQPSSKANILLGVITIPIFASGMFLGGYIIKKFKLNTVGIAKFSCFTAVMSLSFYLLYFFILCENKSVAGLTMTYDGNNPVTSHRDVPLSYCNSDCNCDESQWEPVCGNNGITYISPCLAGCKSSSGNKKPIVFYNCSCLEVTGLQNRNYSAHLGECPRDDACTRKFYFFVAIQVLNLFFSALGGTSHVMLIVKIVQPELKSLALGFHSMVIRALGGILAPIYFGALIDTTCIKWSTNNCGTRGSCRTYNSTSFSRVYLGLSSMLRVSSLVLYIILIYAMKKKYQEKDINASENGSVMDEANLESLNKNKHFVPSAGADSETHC

[2] = after intra peritoneal administration of irinotecan; cited from earlier work
[3] = molecular target: T2, SLCO1B1*15 (N130D and V174A) (Homo sapiens, UniProt Q9Y6L6, N130D/V174A); details: Xenopus oocytes, among the variants examined; cited from earlier work
T2 sequence (Q9Y6L6 1-691 N130D/V174A): T1 sequence (Q9Y6L6 1-691) with N130D, V174A

[4] = CPT-11 pharmacokinetics by SLCO1B1*5 genotype in patients; details: human, in vivo, intravenous
Source text: Six SNPs in ABCC2 were genotyped [−1549G>A, −1019A>G, −24C>T, 1249G>A, intron 27 −34C>T, 3972C>T] and haplotypes were estimated. Two SNPs in SLCO1B1 [*1b (388A>G) and *5 (521T>C)] were also genotyped.

[5] = cited from earlier work
[6] = cited from earlier work; remark: listed apart in the source

For `CCc1c2c(nc3ccc(OC(=O)N4CCC(NCCCCC(=O)O)CC4)cc13)-c1cc3c(c(=O)n1C2)COC(=O)[C@]3(O)CC` [APC], the “AUC ratio APC/irinotecan in TT patients compared to CT and CC patients” value ([1]; 350 mg/m^2 IV irinotecan) was “Higher values of AUC ratios”.

For `CCc1c2c(nc3ccc(O)cc13)-c1cc3c(c(=O)n1C2)COC(=O)[C@]3(O)CC` [SN-38, 7-ethyl-10-hydroxycamptothecin], the “transport activity by OATP1B1” value (OATP1B1) is given as “transport activity for SN-38 was observed”, the “effect on SLCO1B1-mediated uptake of [(3)H]estrone-3-sulfate” value (OATP1B1) is given as “significant inhibitory effect” and the “tissue accumulation of SN-38” value [2] is given as “accumulate in the intestine”. For the same compound, the “transport activity of variant SLCO1B1*15” value [3] was “decreased transport activities” and the “AUC versus ABCC2 3972C>T genotype (TT compared to CT and CC)” value ([1]; 350 mg/m^2 IV irinotecan, patients with 6/6 and 6/7 UGT1A1 genotype (n=54)) was “No significant correlation”.

In the case of `CCc1c2c(nc3ccc(O[C@@H]4O[C@H](C(=O)O)[C@@H](O)[C@H](O)[C@H]4O)cc13)-c1cc3c(c(=O)n1C2)COC(=O)[C@]3(O)CC` [SN-38G, 10O-glucuronyl-SN-38], the “transport activity by OATP1B1” value (OATP1B1) is given as “not transported”.

In the case of `C[C@]12CC[C@@H]3c4ccc(OS(=O)(=O)O)cc4CC[C@H]3[C@@H]1CCC2=O` [estrone-3-sulfate], the “transport activity of variant SLCO1B1*15” value [3] is given as “decreased transport activities”.

For `CCc1c2c(nc3ccc(OC(=O)N4CCC(N5CCCCC5)CC4)cc13)-c1cc3c(c(=O)n1C2)COC(=O)[C@]3(O)CC` [irinotecan], the AUC ([4]; 350 mg/m^2, patients with SLCO1B1*5 CT+CC genotype) is listed as 29500 ± 8800 ng·h/mL, the AUC ([4]; 350 mg/m^2, patients with SLCO1B1*5 TT genotype) is listed as 22300 ± 5100 ng·h/mL and the “transport activity by OATP1B1” value (OATP1B1) is listed as “not transported”. The “patients experiencing grade 3-4 neutropenia” value ([5]; both weekly and three-weekly regimens) was 30-40%, the “patients with grade 3-4 diarrhea” value ([5]; early single agent trials, dose limiting) was “about one third” and the “frequency of grade 3-4 diarrhea” value ([5]; three-weekly regimen) was 19%. The mortality rate ([5]; three-weekly single agent regimen) was 1.6%, the “frequency of grade 3-4 diarrhea” value ([5]; weekly schedule) was 36% and the mortality rate ([5]; weekly single agent regimen) was 5.3%. For the same compound, the “AUC in ABCC2 3972 TT patients compared to CT and CC patients” value ([1]; 350 mg/m^2 IV dose of irinotecan, 64 patients) was “higher AUC values”.

For `CC[C@H](C)C(=O)O[C@H]1C[C@H](O)C=C2C=C[C@H](C)[C@H](CC[C@@H](O)C[C@@H](O)CC(=O)O)[C@H]21` [pravastatin], the “mean pravastatin AUC0-12 higher compared to non-carriers” value ([6]; heterozygous carriers of *15B (388A>G and 521T>C)) is given as 93%, the “mean pravastatin AUC0-12 higher compared to non-carriers” value ([6]; heterozygous carriers of *17 (-11187G>A, 388A>G and 521T>C)) is given as 130% and the “mean pravastatin AUC0-12 higher compared to reference genotype” value ([6]; subjects with 521TC genotype) is given as 106%. The “mean pravastatin AUC0-12 higher compared to reference genotype” value ([6]; subjects with -11187GA genotype) was 98% and the “transport activity of variant SLCO1B1*15” value [3] was “decreased transport activities”.
